Legend:
[1] = system: neuroblastoma B103 cell line; test: MTT test: preventing the toxicity of beta-amyloid; assay type: cell-based; conditions: B103 cells, beta-amyloid-only control = 100%
Procedure: In order to examine the activities of the compounds prepared in the Reference Example in preventing the toxicity of beta-amyloid, the MTT analysis (Gillardon, F. et al., Brain Research. No. 6: pp. 169-172 (1996)) was carried out as follows.
5×10^3 cells of neuroblastoma B103 cell line (donated by Dr. David Schubert of the Salk Institute, USA) were placed in each well of a 96-well plate with 100 μl of DMEM (Dulbecco's Minimal Eagle's Medium) containing 10% fetal bovine serum (FBS), and cultured at 37° C. under 8% CO2 for 1 day. […] The cells were cultured at 37° C. for 18 hours, treated with 15 μl of MTT solution [10 mg/ml solution of 3-(4,5-dimethyl-2-thiazolyl)-2,5-diphenyl-2H-tetrazolium bromide in phosphate buffered saline (PBS)], and allowed to react at 37° C. for 3 to 4 hours. 100 μl of lysis buffer (10% SDS, 50% dimethylformamide, pH 4.7) was added to the wells, and the cells were cultured overnight at room temperature and relative humidity of 90%. Optical density (OD) of each well was measured at […] and 630 nm, respectively, using a scanning multiwell spectrophotometer, and then the OD value at 630 nm was subtracted from that at 570 nm.
Setting the survival rate of the control group treated only with beta-amyloid as 100%, relative survival rates of the experimental groups treated with compound Y, ginsenosides Mc and Rc, PPD and PPT, respectively, were calculated, and the results are shown in Table 2 and FIG. 1. The obtained values were statistically significant.
When the same procedure as above was repeated except that the cells were treated simultaneously with the test compound and beta-amyloid, or treated with the test compound one hour after the beta-amyloid treatment, the results were almost the same as above.
Further, in order to assess the concentration-dependent activity of a test compound, the above procedure was repeated using PPT at concentrations ranging from […].

[2] = system: neuroblastoma B103 cell line; test: MTT test: apoptosis induced by staurosporin; assay type: cell-based; conditions: B103 cells, staurosporin-only control = 100%
Procedure: 5×10^3 cells of neuroblastoma B103 cell line (donated by Dr. David Schubert of the Salk Institute, USA) were placed in each well of a 96-well plate with 100 μl of DMEM (Dulbecco's Minimal Eagle's Medium) containing 10% fetal bovine serum (FBS), and cultured at 37° C. under 8% CO2 for 1 day. After changing the medium to serum-free DMEM, the cells were treated with various concentrations of test compounds and, 1 hour later, with 25 μM of beta-amyloid (25-35 peptide; US peptide, CA, USA). The cells were cultured at 37° C. for 18 hours, treated with 15 μl of MTT solution [10 mg/ml solution of 3-(4,5-dimethyl-2-thiazolyl)-2,5-diphenyl-2H-tetrazolium bromide in phosphate buffered saline (PBS)], and allowed to react at 37° C. for 3 to 4 hours. 100 μl of lysis buffer (10% SDS, 50% dimethylformamide, pH 4.7) was added to the wells, and the cells were cultured overnight at room temperature and relative humidity of 90%. Optical density (OD) of each well was measured at […] and 630 nm, respectively, using a scanning multiwell spectrophotometer, and then the OD value at 630 nm was subtracted from that at 570 nm.
Further, in order to examine whether compounds originating from ginseng can block apoptosis, […], and the survival rates of the neural cells were determined.

mice = test: Morris water maze test (spatial learning); assay type: in vivo; conditions: versus control group, FIG. 6
[3] = Degree of BBB penetration: pharmacokinetics in blood and brain by LC-mass; assay type: in vivo, Sprague-Dawley rat; conditions: SD rat; for migration into the brain (in words): 1 mg/kg intravenous Rg1 or Rb1
Procedure: A male Sprague-Dawley rat (weight 250-300 g) was lightly anesthetized with ether and catheterized with a polyethylene tube (PE-50) in the femoral artery and vein. After the rat recovered, a saline solution containing 1 mg/kg of Rg1 or Rb1 was administered into the femoral vein through the intravenous bolus administration. 300 μl blood samples were collected from the rat's femoral artery at 2, 5, 10, 15, 20, 30, 45 and 60 minutes after the administration. Each blood sample was centrifuged to obtain 100 μl of plasma. A plasma sample was prepared as in (2) of step 1 with the plasma. 20 μl of the sample was injected into the LC mass system as in Step 1, and ginsenosides Rg1 and Rb1 and their metabolites PPD and PPT were quantified. The plasma concentrations of ginsenosides and their metabolites were calculated in the forms of weight per plasma (ml) (in case of ginsenosides) or peak size (in case of metabolites).
Immediately after collecting the blood samples, the rats were decapitated and brain tissues were obtained therefrom. The tissues were rinsed with ice-cooled saline, placed in a 15 ml Falcon tube and then weighed precisely. Acetonitrile was added to the tube in an amount twice the weight of the tissue sample, and the sample was homogenized using a tissue homogenizer (Ultra-Turrax T25, JANKE&KUNKEL IKA-Labortechnik). The mixture was centrifuged at 3,000 rpm for 20 minutes. 300 μl of the resulting supernatant was dried in a speed-vac, and 300 μl of acetonitrile was added thereto. 20 μl of the resulting mixture was injected in the LC mass system as in Step 1 to quantify the concentrations of ginsenosides and their metabolites in the brain, and the measured concentrations were represented by weight per gram of the brain tissue or peak size.
Separation and detection conditions for ginsenosides Rg1 and Rb1 were as described in Step 1, and those for metabolites PPD and PPT were as follows:
The transfer rate of the substances into the brain (Kbrain) can be represented by the ratio of the mean concentration of the substance in the brain (Cmean,brain) to the mean plasma concentration (Cmean,plasma) as in Equation 1. [formula]
The mean concentration of a substance can be determined by dividing the area under the concentration-time curve corresponding to time 0 to t by t and, accordingly, the transfer rate of the substance into the brain (Kbrain) can be calculated by Equation 2 shown below. [formula]

[4] = test compound 1 μM + 25 μM beta-amyloid (25-35), 18 hours
[5] = test compound 1 μM alone, without beta-amyloid
[6] = test compound 1 μM + 0.1 μM staurosporin
[7] = test compound 1 μM alone, without staurosporin

| Compound | Survival rate (%) [1, 4] [%] | Survival rate (%) [1, 5] [%] | Survival rate (%) [2, 6] [%] | Survival rate (%) [2, 7] [%] | time to reach the platform (mice) | Survival rate (%) ([1]; test compound 10 μM + 25 μM beta-amyloid (25-35), 18 hours) | Survival rate (%) ([1]; test compound 10 μM alone, without beta-amyloid) | migration into the brain (in words) [3] | concentration in the brain as compared with that in the plasma ([3]; 1 mg/kg intravenous bolus, until 60 min., FIG. 11b) | concentration in the brain ([3]; 1 mg/kg intravenous bolus of the ginsenoside, FIG. 11a) |
| --- | --- | --- | --- | --- | --- | --- | --- | --- | --- | --- |
| CC(C)=CCC[C@](C)(O[C@@H]1O[C@H](CO[C@@H]2O[C@@H](CO)[C@H](O)[C@H]2O)[C@@H](O)[C@H](O)[C@H]1O)[C@H]1CC[C@]2(C)[C@@H]1[C@H](O)C[C@@H]1[C@@]3(C)CC[C@H](O)C(C)(C)[C@@H]3CC[C@]12C [Ginsenoside Mc] | 106.1 ± 2.4 | 148.0 ± 6.3 | 101.1 ± 2.7 | 178.6 ± 6.3 | much shorter time to reach the platform | – | – | – | – | – |
| CC(C)=CCC[C@](C)(O[C@@H]1O[C@H](CO[C@@H]2O[C@@H](CO)[C@H](O)[C@H]2O)[C@@H](O)[C@H](O)[C@H]1O)[C@H]1CC[C@]2(C)[C@@H]1[C@H](O)C[C@@H]1[C@@]3(C)CC[C@H](O[C@@H]4O[C@H](CO)[C@@H](O)[C@H](O)[C@H]4O[C@@H]4O[C@H](CO)[C@@H](O)[C@H](O)[C@H]4O)C(C)(C)[C@@H]3CC[C@]12C [Ginsenoside Rc] | 106.0 ± 0.9 | 161.0 ± 4.9 | 97.0 ± 4.8 | 191.4 ± 4.9 | much shorter time to reach the platform | 107.2 ± 1.9 | 126.7 ± 3.7 | – | – | – |
| CC(C)=CCC[C@](C)(O[C@@H]1O[C@H](CO[C@@H]2O[C@H](CO)[C@@H](O)[C@H](O)[C@H]2O)[C@@H](O)[C@H](O)[C@H]1O)[C@H]1CC[C@]2(C)[C@@H]1[C@H](O)C[C@@H]1[C@@]3(C)CC[C@H](O[C@@H]4O[C@H](CO)[C@@H](O)[C@H](O)[C@H]4O[C@@H]4O[C@H](CO)[C@@H](O)[C@H](O)[C@H]4O)C(C)(C)[C@@H]3CC[C@]12C [ginsenoside Rb1, reference compound] | – | – | – | – | – | – | – | do not migrate into the brain | below 5.8% | – |
| CC(C)=CCC[C@](C)(O[C@@H]1O[C@H](CO)[C@@H](O)[C@H](O)[C@H]1O)[C@H]1CC[C@]2(C)[C@@H]1[C@H](O)C[C@@H]1[C@@]3(C)CC[C@H](O)C(C)(C)[C@@H]3[C@@H](O[C@@H]3O[C@H](CO)[C@@H](O)[C@H](O)[C@H]3O)C[C@]12C [ginsenoside Rg1, reference compound] | – | – | – | – | – | – | – | do not migrate into the brain | – | below the detectable level |

Reference: US20050233984A1, “Composition for preventing or treating degenerative brain diseases comprising a hydrolysate of ginsenosides” (Digital Biotech Co., Ltd., priority 2002, published 2005)
